Data published in US20230416203A1, “POTENT AND SELECTIVE INHIBITORS OF THE CALCIUM-ACTIVATED POTASSIUM CHANNEL, KCA3.1, FOR USE AS PLATFORM THERAPEUTICS” (priority 2020, published 2023).

Experiment: Two-week non-GLP toxicology in mice (clinical signs, body weight, body weight gain, food consumption, hematology, clinical chemistry, organ weights, histopathology)
Settings: for Organ weights relative to body weight (%), Adrenals / Organ weights relative to body weight (%), Brain / Organ weights relative to body weight (%), Heart / Organ weights relative to body weight (%), Kidneys / Organ weights relative to body weight (%), Liver / Organ weights relative to body weight (%), Ovaries / Organ weights relative to body weight (%), Spleen / Organ weights relative to body weight (%), Thymus / Organ weights relative to body weight (%), U / ALB / ALT / AST / BUN / Basophils / CREA / Eosinophils / GLU / HCT / HGB / LDLC / Lympthocytes / MCH / MCHC / MCV / Monocytes / Neutrophils / PLT / RBC / Reticuloxyte Count / TBIL / TGL / TP / Urea / WBC / Body weight gain (%) / ALP / Lymphocytes / Monosytes / Organ weights relative to body weight (%), Epididy / Organ weights relative to body weight (%), Testes / Organ weights relative to body weight (%), Thy: mean
[1] = 25 and 50 mg/kg BID, 2 weeks, mice
[2] = G2 25 mg/kg/BID oral, Treatment Day 1
[3] = G2 25 mg/kg/BID oral, Treatment Day 4
[4] = G2 25 mg/kg/BID oral, Treatment Day 8
[5] = G2 25 mg/kg/BID oral, Treatment Day 11
[6] = G2 25 mg/kg/BID oral, Treatment Day 14
[7] = G3 50 mg/kg/BID oral, Treatment Day 1
[8] = G3 50 mg/kg/BID oral, Treatment Day 4
[9] = G3 50 mg/kg/BID oral, Treatment Day 8
[10] = G3 50 mg/kg/BID oral, Treatment Day 11
[11] = G3 50 mg/kg/BID oral, Treatment Day 14
[12] = female mice, 25 mg/kg ROD oral, 2 weeks
[13] = female mice, 25 mg/kg/BID oral, 2 weeks
[14] = female mice, 25 mg/kg/BID oral, treatment day 1 to 4
[15] = female mice, 25 mg/kg/BID oral, treatment day 1 to 8
[16] = female mice, 25 mg/kg/BID oral, treatment day 1 to 11
[17] = female mice, 25 mg/kg/BID oral, treatment day 1 to 14
[18] = female mice, 50 mg/kg/BID oral, 2 weeks
[19] = female mice, 50 mg/kg/BID oral, treatment day 1 to 4
[20] = female mice, 50 mg/kg/BID oral, treatment day 1 to 8
[21] = female mice, 50 mg/kg/BID oral, treatment day 1 to 11
[22] = female mice, 50 mg/kg/BID oral, treatment day 1 to 14
[23] = female mice, 50 mg/kg:BID oral, 2 weeks
[24] = male mice, 25 mg/kg/BID oral, 2 weeks
[25] = male mice, 25 mg/kg/BID oral, treatment day 1 to 4
[26] = male mice, 25 mg/kg/BID oral, treatment day 1 to 8
[27] = male mice, 25 mg/kg/BID oral, treatment day 1 to 11
[28] = male mice, 25 mg/kg/BID oral, treatment day 1 to 14
[29] = male mice, 50 mg/kg/BID oral, 2 weeks
[30] = male mice, 50 mg/kg/BID oral, treatment day 1 to 4
[31] = male mice, 50 mg/kg/BID oral, treatment day 1 to 8
[32] = male mice, 50 mg/kg/BID oral, treatment day 1 to 11
[33] = male mice, 50 mg/kg/BID oral, treatment day 1 to 14
[34] = oral, twice daily, 25 and 50 mg/kg, 2 weeks, mice

Procedure: Each group contained 6 mice. The animals were analyzed throughout the study, and blood and tissues were analyzed at the end of the study.

COC(=O)C1=CNC=C(C(=O)OC)C1c1ccc(F)c(C(F)(F)F)c1 [Compound 103, Dimethyl 4-(4-fluoro-3-(trifluoromethyl)phenyl)-1,4-dihydropyridine-3,5-dicarboxylate]
decrease in white blood cells (WBC) (25 mg/kg and 50 mg/kg treated male and female mice, statistically significant): up to 3.4 fold
Hematological assessment, other parameters [1]: No other toxicologically significant changes were detected
Histopathology analysis [1]: did not detect any differences with controls
Organ weights [1]: not altered
gross pathology [1]: no obvious gross pathology
Body weight of female mice, Mean [2]: 20.33
Body weight of male mice, Mean [2]: 18.30
Body weight of female mice, Mean [3]: 21.03
Body weight of male mice, Mean [3]: 17.65
Body weight of female mice, Mean [4]: 21.48
Body weight of male mice, Mean [4]: 19.12
Body weight of female mice, Mean [5]: 21.52
Body weight of male mice, Mean [5]: 18.95
Body weight of female mice, Mean [6]: 21.93
Body weight of male mice, Mean [6]: 19.27
Body weight of female mice, Mean [7]: 20.47
Body weight of male mice, Mean [7]: 18.75
Body weight of female mice, Mean [8]: 20.37
Body weight of male mice, Mean [8]: 18.63
Body weight of female mice, Mean [9]: 21.13
Body weight of male mice, Mean [9]: 19.52
Body weight of female mice, Mean [10]: 21.20
Body weight of male mice, Mean [10]: 19.32
Body weight of female mice, Mean [11]: 21.73
Body weight of male mice, Mean [11]: 19.85
Organ weights relative to body weight (%), Adrenals [12]: 0.038%
Organ weights relative to body weight (%), Brain [12]: 2.217%
Organ weights relative to body weight (%), Heart [12]: 0.990%
Organ weights relative to body weight (%), Kidneys [12]: 1.379%
Organ weights relative to body weight (%), Liver [12]: 6.436%
Organ weights relative to body weight (%), Ovaries [12]: 0.077%
Organ weights relative to body weight (%), Spleen [12]: 0.672*↑ %
Organ weights relative to body weight (%), Thymus [12]: 0.200%
Organ weights relative to body weight (%), U [12]: 0.321%
ALB [13]: 2.60*↓ g/dL
ALT [13]: 40.03 U/L
AST [13]: 84.12 U/L
BUN [13]: 19.24 mg/dL
Basophils [13]: 0.00
CREA [13]: 0.13 mg/dL
Eosinophils [13]: 0.00
GLU [13]: 153.02 mg/dL
HCT [13]: 28.87%
HGB [13]: 12.97 g/dL
LDLC [13]: 9.31 mg/dL
Lympthocytes [13]: 82.00
MCH [13]: 21.10*↓ pg
MCHC [13]: 44.93*↓ g/dL
MCV [13]: 46.97*↑ fL
Monocytes [13]: 1.00
Neutrophils [13]: 17.00
PLT [13]: 616.67 10^3/μl
RBC [13]: 6.15
Reticuloxyte Count [13]: 2.63
TBIL [13]: 0.12 mg/dL
TGL [13]: 48.73 mg/dL
TP [13]: 4.12 g/dL
Urea [13]: 41.23 mg/dL
WBC [13]: 3.73*↓ 10^3/μl
Food consumption, Average Feed Intake/Animal [14]: 9.4 g/animal
Body weight gain (%) [14]: −3.53%
Food consumption, Average Feed Intake/Animal [15]: 12.8 g/animal
Body weight gain (%) [15]: 4.49%
Food consumption, Average Feed Intake/Animal [16]: 10.3 g/animal
Body weight gain (%) [16]: 3.54%
Food consumption, Average Feed Intake/Animal [17]: 9.5 g/animal
Body weight gain (%) [17]: 5.27%
ALB [18]: 2.55*↓ g/dL
ALP [18]: 254.38 U/L
ALT [18]: 55.57 U/L
AST [18]: 92.78 U/L
BUN [18]: 22.71 mg/dL
Basophils [18]: 0.00
CREA [18]: 0.12 mg/dL
Eosinophils [18]: 0.00
GLU [18]: 165.87 mg/dL
HCT [18]: 28.73%
HGB [18]: 13.67 g/dL
LDLC [18]: 8.23 mg/dL
Lympthocytes [18]: 84.00
MCH [18]: 21.23 pg
MCHC [18]: 45.37*↓ g/dL
MCV [18]: 46.83*↑ fL
Monocytes [18]: 1.33
Neutrophils [18]: 14.67
PLT [18]: 733.00 10^3/μl
RBC [18]: 6.14
Reticuloxyte Count [18]: 2.67
TBIL [18]: 0.14 mg/dL
TGL [18]: 59.97 mg/dL
TP [18]: 3.89 g/dL
Urea [18]: 48.65 mg/dL
WBC [18]: 2.17*↓ 10^3/μl
Food consumption, Average Feed Intake/Animal [19]: 9.1 g/animal
Body weight gain (%) [19]: −0.68%
Food consumption, Average Feed Intake/Animal [20]: 12.8 g/animal
Body weight gain (%) [20]: 4.10%
Food consumption, Average Feed Intake/Animal [21]: 8.7 g/animal
Body weight gain (%) [21]: 3.03%
Food consumption, Average Feed Intake/Animal [22]: 9.8 g/animal
Body weight gain (%) [22]: 5.87%
Organ weights relative to body weight (%), Adrenals [23]: 0.035%
Organ weights relative to body weight (%), Brain [23]: 2.175%
Organ weights relative to body weight (%), Heart [23]: 0.532%
Organ weights relative to body weight (%), Kidneys [23]: 1.375%
Organ weights relative to body weight (%), Liver [23]: 7.356%
Organ weights relative to body weight (%), Ovaries [23]: 0.066%
Organ weights relative to body weight (%), Spleen [23]: 0.490%
Organ weights relative to body weight (%), Thymus [23]: 0.220%
Organ weights relative to body weight (%), U [23]: 0.277%
clinical chemistry assessment (male and female mice, 25 and 50 mg/kg BID, 2 weeks): no significant toxicological change
ALB [24]: 2.66
ALP [24]: 207.96
ALT [24]: 42.36
AST [24]: 79.38
BUN [24]: 19.73
Basophils [24]: 0.00
CREA [24]: 0.14
Eosinophils [24]: 0.67
GLU [24]: 157.88 mg/dL
HCT [24]: 31.43%
HGB [24]: 15.37 g/dL
LDLC [24]: 10.02 mg/dL
Lymphocytes [24]: 82.33
MCH [24]: 23.27 pg
MCHC [24]: 48.87 g/dL
MCV [24]: 47.70 fL
Monosytes [24]: 1.33
Neutrophils [24]: 15.67
Organ weights relative to body weight (%), Adrenals [24]: 0.024%
Organ weights relative to body weight (%), Brain [24]: 2.065%
Organ weights relative to body weight (%), Epididy [24]: 0.333%
Organ weights relative to body weight (%), Heart [24]: 0.500%
Organ weights relative to body weight (%), Kidneys [24]: 1.490%
Organ weights relative to body weight (%), Liver [24]: 7.093%
Organ weights relative to body weight (%), Spleen [24]: 0.351%
Organ weights relative to body weight (%), Testes [24]: 0.582%
Organ weights relative to body weight (%), Thy [24]: 0.136%
PLT [24]: 591.33 10^3/μl
RBC [24]: 6.59
Reticuloxyte Count [24]: 2.90
TBIL [24]: 0.09*↓ mg/dL
TGL [24]: 73.46 mg/dL
TP [24]: 4.13*↑ g/dL
Urea [24]: 42.29 mg/dL
WBC [24]: 3.70*↓ 10^3/μl
Food consumption, Average Feed Intake/Animal [25]: 9.9 g/animal
Body weight gain (%) [25]: 3.45%
Food consumption, Average Feed Intake/Animal [26]: 14.8 g/animal
Body weight gain (%) [26]: 5.68%
Food consumption, Average Feed Intake/Animal [27]: 9.5 g/animal
Body weight gain (%) [27]: 5.86%
Food consumption, Average Feed Intake/Animal [28]: 10.4 g/animal
Body weight gain (%) [28]: 7.91%
ALB [29]: 2.43
ALP [29]: 180.63
ALT [29]: 59.72
AST [29]: 88.76
BUN [29]: 22.97
Basophils [29]: 0.00
CREA [29]: 0.12*↓
Eosinophils [29]: 0.00
GLU [29]: 152.77 mg/dL
HCT [29]: 30.70%
HGB [29]: 13.73 g/dL
LDLC [29]: 9.84 mg/dL
Lymphocytes [29]: 78.00
MCH [29]: 21.70 pg
MCHC [29]: 44.77 g/dL
MCV [29]: 48.40*↑ fL
Monosytes [29]: 2.00
Neutrophils [29]: 20.00
Organ weights relative to body weight (%), Adrenals [29]: 0.030%
Organ weights relative to body weight (%), Brain [29]: 2.017%
Organ weights relative to body weight (%), Epididy [29]: 0.298%
Organ weights relative to body weight (%), Heart [29]: 0.541%
Organ weights relative to body weight (%), Kidneys [29]: 1.467%
Organ weights relative to body weight (%), Liver [29]: 7.014%
Organ weights relative to body weight (%), Spleen [29]: 0.461%
Organ weights relative to body weight (%), Testes [29]: 0.773%
Organ weights relative to body weight (%), Thy [29]: 0.116%
PLT [29]: 661.00 10^3/μl
RBC [29]: 6.34
Reticuloxyte Count [29]: 2.67
TBIL [29]: 0.08*↓ mg/dL
TGL [29]: 84.42 mg/dL
TP [29]: 4.19*↑ g/dL
Urea [29]: 47.30 mg/dL
WBC [29]: 2.27*↓ 10^3/μl
Food consumption, Average Feed Intake/Animal [30]: 8.7 g/animal
Body weight gain (%) [30]: −0.49*1%
Food consumption, Average Feed Intake/Animal [31]: 14.4 g/animal
Body weight gain (%) [31]: 3.28%
Food consumption, Average Feed Intake/Animal [32]: 9.4 g/animal
Body weight gain (%) [32]: 3.60%
Food consumption, Average Feed Intake/Animal [33]: 11.0 g/animal
Body weight gain (%) [33]: 6.21%
body weight and body weight gain [34]: did not change
clinical signs [34]: No abnormal clinical signs were detected
survival [34]: all animals survived to study termination
tolerable dose (twice daily for 14 consecutive days, oral, C57BL/6 mice): > 50 mg/kg/BID
